The values that follow come from patent US20220280538A1, “METHODS OF TREATING P53 MUTANT CANCERS USING OGDH INHIBITORS” (MEMORIAL SLOAN KETTERING CANCER CENTER, priority 2019, published 2022).

Structures are written as SMILES. Where only a bound is given, the exact number is not on record here.

Assay [1] concerns the target T1, OGDH (Homo sapiens, UniProt Q02218).
T1 sequence (Q02218 41-1023): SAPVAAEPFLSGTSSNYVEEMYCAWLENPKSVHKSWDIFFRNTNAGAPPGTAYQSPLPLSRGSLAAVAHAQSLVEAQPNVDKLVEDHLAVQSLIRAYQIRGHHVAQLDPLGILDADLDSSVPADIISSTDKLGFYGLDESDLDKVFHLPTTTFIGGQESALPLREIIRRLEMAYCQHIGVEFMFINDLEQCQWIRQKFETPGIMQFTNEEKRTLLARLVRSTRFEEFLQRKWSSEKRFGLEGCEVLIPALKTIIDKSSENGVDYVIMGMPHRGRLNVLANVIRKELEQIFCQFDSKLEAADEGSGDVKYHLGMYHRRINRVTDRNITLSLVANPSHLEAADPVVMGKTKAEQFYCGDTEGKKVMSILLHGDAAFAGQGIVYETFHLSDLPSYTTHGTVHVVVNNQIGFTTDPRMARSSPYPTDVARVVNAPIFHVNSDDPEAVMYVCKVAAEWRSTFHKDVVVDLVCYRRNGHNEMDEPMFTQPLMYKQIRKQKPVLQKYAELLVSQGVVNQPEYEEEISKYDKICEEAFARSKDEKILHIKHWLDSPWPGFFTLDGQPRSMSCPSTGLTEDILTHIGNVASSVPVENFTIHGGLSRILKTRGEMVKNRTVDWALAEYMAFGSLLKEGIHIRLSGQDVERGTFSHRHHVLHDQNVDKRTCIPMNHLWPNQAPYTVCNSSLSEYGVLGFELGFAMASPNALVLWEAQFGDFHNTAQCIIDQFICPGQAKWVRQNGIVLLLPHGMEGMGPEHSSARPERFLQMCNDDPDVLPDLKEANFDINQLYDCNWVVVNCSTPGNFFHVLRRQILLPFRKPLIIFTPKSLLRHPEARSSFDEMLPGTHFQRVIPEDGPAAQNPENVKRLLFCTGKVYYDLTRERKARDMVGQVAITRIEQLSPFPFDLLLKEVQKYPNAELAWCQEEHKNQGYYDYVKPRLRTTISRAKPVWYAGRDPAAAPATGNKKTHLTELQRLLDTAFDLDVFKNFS
The experiment in a line: OGDH enzyme inhibition in vitro. Format: biochemical. The source says:
It is worth noting that there are ongoing clinical trials in hematologic malignancies including AML for a compound designated CPI-613. This drug is an analog of lipoate, a catalytic co-factor and modulator of several metabolic enzymes, including the TCA enzymes pyruvate dehydrogenase (PDH) and OGDH. However, the compound is thought to elicit its anti-cancer effects through an indirect mechanism and may also target additional lipoate-dependent enzymes involved in amino acid catabolism. […] Instead development of specific inhibitors of OGDH was initiated for the purpose of exploiting a known metabolic phenotype mimicking the wt-p53 tumor suppressive effect. These concepts and compounds will be tested in our models of CK AML.

Assay [2] deals with Nras^G12D; Mll-Af9 murine AML cells. The experiment in a line: aKG:succinate ratio in AML cells by GC/MS. Format: cell-based. The note with it: FIG. 20F.
The subject of assay [3] is KP^sh cells. The experiment in a line: RNA-Seq / GSEA / qRT-PCR gene expression in KP^sh cells. Format: cell-based, mouse.
Experimental: qRT-PCR. Total RNA was extracted in triplicate wells from indicated conditions using the RNAeasy Mini Kit (Qiagen) according to manufacturer protocols. cDNA was synthesized from 1 μg of RNA (AffinityScript QPCR cDNA synthesis kit, Agilent) and QPCR amplification performed with SYBR green (Perfecta SYBR green fast mix, QuantaBio) using the following primer pairs on a ViiA 7 Real-Time PCR System (Life technologies). 36B4 was utilized as endogenous control.
RNA-Seq. Total RNA was isolated from duplicate wells of indicated conditions. RNA integrity and concentration were assessed using a BioAnalyzer (Agilent). RNA sequencing libraries were generated using Illumina mRNA TruSeq kit with dual index barcoding. […] Approximately 8 million paired-end 76 bp reads were sequenced per replicate on a HiSeq 2500 instrument on RAPID mode. […] Genome wide transcript counting was performed by HTSeq or featureCounts to generate FPKM matrix. […] Differential expression analysis was performed with DESeq2 package in R^50. Genes with a real adjusted p value were used for downstream analyses.
Gene Set Enrichment Analysis. Gene set enrichment analysis (GSEA) was performed using ranked lists. […] GSEAPreranked version 4 was used with default parameters and data were exported and graphed in GraphPad Prism version 7.
Assay [4] relates to KP^sh cells. The experiment in a line: ATAC-Seq chromatin accessibility in KP^sh cells. Format: cell-based, mouse. The note with it: KP^sh cells with dox, cell-permeable αKG. As for the experimental part: Epigenomic Analysis. 1×10^6 KP^sh cells were washed with PBS and plated on and off dox 8 days (−D8) before collecting cells for ATAC-Seq analysis. Cells maintained on dox and off dox were passaged every 48 h. Three days prior to harvest, dimethyl-α-ketoglutarate (DM-αKG) was added to cells grown on dox, while DMSO was added to cells maintained on dox and cells maintained off dox. All cell groups (On dox, DMSO; On dox, DM-αKG; Off dox, DMSO) were split into 6-well plates in duplicate in fresh media containing dox, DM-αKG, and DMSO as indicated two days prior to harvest. This medium was refreshed 24 h before collection. […] Barcoded libraries were pooled (2-4 samples/lane) and run on an Illumina HiSeq 2500 sequencer using 50 bp paired-end reads.
For data analysis, quality and adapter filtering was applied to raw reads using ‘trim_galore’ before aligning to mouse assembly mm9 with bowtie2 using the default parameters. The Picard tool MarkDuplicates was used to remove reads with the same start site and orientation. The BEDTools suite was used to create read density profiles. Enriched regions were discovered using MACS2 and scored against matched input libraries (fold change >2 and FDR-adjusted p-value <0.1). […] ChIP-seq data were processed in the same way as ATAC-seq data, except read density profiles for ChIP included a read extension equivalent to the average library fragment size. […]

The test system of assay [5] is dox-treated KP^sh cells. The experiment in a line: 5hmC flow cytometry in KP^sh cells. Format: cell-based, mouse. Particulars: KP^sh-2 cells, 4 mM DM-αKG for 72 h. How it is done: (§1) BrdU, Annexin-V, 5hmC Flow Cytometry Assays. BrdU (BD Pharmigen) and Annexin V (BDPharmigen) analysis was performed in triplicate in cells plated in 6-well dishes under indicated conditions via manufacturers' protocols. 5hmC flow was performed in triplicate in cells plated in 6-well dishes. Briefly, adherent cells were washed with PBS, collected by trypsinization, and fixed on ice for 15 minutes in fixation/permeabilization solution (BD Cat #554714). The cells were then washed with 1× perm/wash buffer (BD Cat #554714) supplemented with 0.1% Triton X, treated with 1× perm/wash buffer supplemented with 0.5% Triton X and 0.5% Nonidet P-40 substitute for 30 minutes. Then, the cells were washed with 1× perm/wash buffer supplemented with 0.1% Triton X, incubated overnight at 4° C. with rabbit anti-5hmC antibody diluted 1:100 in 1× perm/wash buffer supplemented with 0.1% Triton X, washed with 1× perm/wash buffer supplemented with 0.1% Triton X, and incubated for 1 hour at room temperature with goat anti-rabbit Alexa Fluor 700 diluted 1:200 in 1× perm/wash buffer supplemented with 0.1% Triton X. The cells were then washed with 1× perm/wash buffer supplemented with 0.1% Triton X, resuspended in 1× perm/wash buffer, and analyzed.

The test system of assay [6] is p53 mutant human PDAC cells. The experiment in a line: 5hmC flow cytometry in human PDAC cells. Format: cell-based. The note with it: 8988 and Panel cells, 4 mM DM-αKG for 72 h. As for the experimental part: as §1
For assay [7], the system named is KP^sh cells. The experiment in a line: αKG/succinate ratio in KP^sh PDAC cells (metabolite profiling). Format: cell-based, mouse. Particulars: KP^sh cells on dox; 3 μM etoposide or 25 nM trametinib, 48 or 96 hours.
Experimental: Cell Lines and Cell Culture Treatments. KP^sh-1-3 cells were derived from PDAC that developed in three separate Pdx1-Cre; LSL-KrasG12D; Col1a1-TRE-shp53-shRenilla; Rosa26-CAGs-LSL-rtTA-IRES-mKate2 mice generated by blastocyst injection and maintained on doxycycline (dox) chow (625 mg/kg, Harlan Laboratories) 5 days from birth until sacrifice. […] KP^floxRIK cells were derived from PDAC that developed in a p48-Cre; LSL-KrasG12D; p53^flox/+; Rosa26-CAGs-LSL-rtTA-IRES-mKate2 mouse generated by blastocyst injection. KP^R172HRIK cells were derived from tumors that developed in a p48Cre^ER; LSL-KrasG12D; LSL-p53^R172H/+; Rosa26-CAGs-LSL-rtTA-IRES-mKate2 mouse generated by blastocyst injection. […]
Metabolite Profiling. […] Samples were analyzed using an Agilent 7890A GC coupled to Agilent 5975C mass selective detector. […] Peaks representing compounds of interest were extracted and integrated using MassHunter software (Agilent Technologies) and peak area was normalized to the internal standard (d5-2HG) peak area and protein content of duplicate samples as determined by BCA protein assay (Thermo Scientific). Ions used for quantification of metabolite levels are as follows: d5-2HG m/z 354; citrate, m/z 465; αKG, m/z 304; aspartate, m/z 334; fumarate, m/z 245; malate, m/z 335 and succinate, m/z 247. […]
The test system of assay [8] is KP^sh cells. The experiment in a line: Cell cycle arrest and senescence (BrdU, SA-β-gal) in KP^sh PDAC cells. Format: cell-based, mouse. The note with it: KP^sh cells on dox; 3 μM etoposide or 25 nM trametinib, 48 or 96 hours.
Experimental: Cell Lines and Cell Culture Treatments. KP^sh-1-3 cells were derived from PDAC that developed in three separate Pdx1-Cre; LSL-KrasG12D; Col1a1-TRE-shp53-shRenilla; Rosa26-CAGs-LSL-rtTA-IRES-mKate2 mice generated by blastocyst injection and maintained on doxycycline (dox) chow (625 mg/kg, Harlan Laboratories) 5 days from birth until sacrifice. […] Guide strands for Col1a1 targeted tandem shRNAs were: p53, [sequence] (SEQ ID NO: 1) and Renilla, [sequence] (SEQ ID NO: 2). […] Tumors were diced with scissors and resulting pieces sequentially digested with 1 mg/ml collagenase V (Sigma) diluted in Hanks Buffered saline solution followed by 0.25% Trypsin. Digested suspensions were washed with complete DMEM (DMEM, 10% FBS (GIBCO), 1× Penicillin/Streptomycin) and propagated in complete DMEM on collagen-coated plates (PurCol, Advanced Biomatrix, 0.1 mg/ml). KP^sh cells were grown in complete DMEM supplemented with 1 μg/ml doxycycline.
Senescence Associated Beta-Galactosidase (SA-β-Gal) Assay. SA-β-gal activity was detected as described previously. […] At least 200 cells were analyzed from triplicate wells at all conditions. […]

In the case of `O=C(O)CCCCC(CCSCc1ccccc1)SCc1ccccc1` (centres unmarked) [CPI-613], in assay [1], the “specificity for OGDH” value was “lacks specificity for OGDH”. For the same compound, the “concentration at which OGDH is inhibited” value in assay [1] (in vitro) is above 200 µM. Besides, in assay [2], the “cellular ratio of αKG:succinate” value was “not”.

Turning to `CC(=O)[O-].[Na+]` [acetate, sodium acetate], in assay [3] (4 mM, 72 h), the “induction of pre-malignant associated genes co-regulated by p53 and αKG (qRT-PCR)” value is recorded as “not”.

Consider `COC(=O)CCC(=O)C(=O)OC` [cell-permeable αKG, dimethyl-α-ketoglutarate], for which the “chromatin accessibility (ATAC-Seq)” value in assay [4] is “global increase in chromatin accessibility”. Further, in assay [3], the “expression of genes enriched in malignant PDAC cells (GSEA)” value was “concomitant downregulation of genes enriched in malignant PDAC cells” and the “expression of genes of premalignant PanIN lesions (GSEA)” value is “robust increase in expression of genes selectively expressed in cells derived from premalignant PanIN lesions”. Also, the “cellular 5hmC” value in assay [5] is “induced cellular 5hmC”. In addition, in assay [6], the “cellular 5hmC” value is given as “induced cellular 5hmC”.

In the case of `COc1cc([C@@H]2c3cc4c(cc3[C@@H](O[C@@H]3O[C@@H]5CO[C@@H](C)O[C@H]5[C@H](O)[C@H]3O)[C@H]3COC(=O)[C@H]23)OCO4)cc(OC)c1O` [etoposide], the αKG/succinate ratio result in assay [7] was “neither altered the αKG/succinate ratio”. In assay [8], the “cell cycle arrest and senescence” value was “triggered cell cycle arrest and senescence”.
